Values after ≈ are worked out from the molar mass of the structure shown. “Also recorded” adds a separate entry of the source. Read-outs that look alike come from different tables or passages of the source. Square brackets hold non-standard residues; d marks the D form. Ends that are not written are not given here. Peptide text beside a SMILES is read from it. AEEA = NCCOCCOCC(=O)O
How the values were obtained:
[1] = Toxicity of peptides injected intraperitoneally; format: in vivo, mice; details: intraperitoneal, 10 or 20 μM
Experimental: (§1) FIGS. 23A, B show the efficacy and toxicity of modified peptides in mice. […] The survival of mice injected intraperitoneally with iron dextran at 48 h after intraperitoneal injection of 10 or 20 μM of the modified peptides. […] Vibrio vulnificus (V. v.) strain CMCP6 was injected at 1×10^6 CFU. […] All mice receive iron dextran by intraperitoneal injection. Where indicated, 1 h later 10^6 bacterial CFU in 100 μL was injected into the peritoneum (opposite side). 1 h later, 100 μL of the peptide at the indicated concentration was administered on the same side as the bacterial injection.
(§2) Since B22a was effective in preventing infection of V. vulnificus in a surgical incision model, we tested it for efficacy for systemic infection in a mouse septicemia model (1). Groups of mice (strain CD-1) were first injected with […], followed 1 h later with an intraperitoneal injection of 1×10e6 colony forming units of V. vulnificus strain […]. The B22a was then injected intraperitoneally 1 h later and morbidity was monitored hourly for two days.
PB22N and other modified peptides were tested in a septicemic mouse model. V. vulnificus is a highly-pathogenic bacterium, causing septicemia and high mortality. In mice injected intraperitoneally with V. vulnificus, the majority of the mice had to be euthanized within 24 h due to severe symptoms associated with septicemia (FIG. 23B). […] PB22N was effective in preventing mice from succumbing to systemic infection by the highly virulent V. vulnificus.

V. vulnificus = assay: Iron-dextran septicemia model; format: in vivo, mice (strain CD-1); details: 10 or 20 μM intraperitoneally 1 h after V. vulnificus
Experimental: as §1, §2
PB22N and other modified peptides were tested in a septicemic mouse model. V. vulnificus is a highly-pathogenic bacterium, causing septicemia and high mortality. In mice injected intraperitoneally with V. vulnificus, the majority of the mice had to be euthanized within 24 h due to severe symptoms associated with septicemia (FIG. 23B). […]

[2] = test system: twenty representative Gram-negative bacteria of the Enterobacteriacea; assay: MIC panel; format: cell-based; details: Table 10
From the text: The lack of efficacy of B22a in inhibiting systemic bacterial infection may have been due to it not being sufficiently stable in vivo. Therefore, three peptides were synthesized that contain the B22 amino acid sequence with additional modifications. Peptide AB22a (SEQ ID No. 32) has an N-terminal acetyl group (CH3C(O)) and a C-terminal amide (NH2). Peptide AB22P (SEQ ID No. 33) has an N-terminal acetyl group and a C-terminal polyethyleneglycol (PEG) (PEG=conjugated 8-amino 3,6-dioxaoctanoic acid). Peptide PB22N (SEQ ID No. 34) has a PEG at the N-terminus. In vitro, PB22N was effective in inhibiting the growth of the majority of the Gram-negative bacteria of the Enterobacteriacea. […] PB22N was also efficacious in inhibiting antibiotic-resistant clinical isolates of Klebsiella pneumoniae (Table 11).

Pseudomonas aeruginosa = format: cell-based
Experimental: (§4) Antimicrobial activity was determined using the broth microdilution method based on the general recommendation of the Clinical and Laboratory Standards Institute. Bacteria were grown in Mueller-Hinton broth at 37° C. until OD625 reached 0.06, and then bacteria were further diluted into 1:20 for later use. […] 10 microliter (μL) of diluted bacteria was mixed with 90 μL of peptides at varying concentrations followed by incubation at 37° C. for 16-18 hours. The MIC is the lowest peptide concentration at which visible growth was inhibited. The MIC value was determined at least twice in independent experiments and typically in 3-4 assays.

P. aeruginosa PAO1 = assay: Bactericidal activity, viable colony formation; format: cell-based, Pseudomonas aeruginosa; details: for Viable colony formation, P. aeruginosa PAO1 / Fold reduction, P. aeruginosa PAO1: 2 μM peptide for 30 min; for Fold reduction, P. aeruginosa PAO1: versus mock
Experimental: (§3) The broth dilution assay tested for the inhibition of growth. To determine whether B22a has bactericidal activity, viable colonies that formed after bacteria were treated with 2 μM of B22a for 30 min were enumerated (Table 7). Peptide B22a reduced viable colony formation by E. coli by over 2 orders of magnitude. B22a reduced viable colony formation by P. aeruginosa by over 3 orders of magnitudes. B22a, like its predecessor B22, is a bactericidal for Gram-negative bacteria.

E. coli ATCC 25922 = assay: Bactericidal activity, viable colony formation; format: cell-based, Escherichia coli; details: for Viable colony formation, E. coli ATCC 25922 / Fold reduction, E. coli ATCC 25922: 2 μM peptide for 30 min; for Fold reduction, E. coli ATCC 25922: versus mock
Experimental: as §3

E. coli Top10pHNSHP45 = assay: Killing of colistin-resistant E. coli harboring mcr-1 plasmid; format: cell-based, Escherichia coli; details: for Reduction of Top10pHNSHP45 colony formation: 5 minute incubation (FIG. 12B)
Experimental: 1×10^5 CFUs of the bacteria were incubated for 30 min with the concentration of the peptides or colistin shown. Approximately 500 CFUs were then added as a droplet onto nonselective media for 18 h. […] The numbers are the means of three independent assays and those in parenthesis are the range for one standard deviation.
Each antimicrobial peptide was assayed at a final concentration of 2 μM. The number of viable bacterial colonies were determined by plating on a non-selective media and enumerated. Each result is the average of three independent assays. The fold reduction in the colony forming units (CFU) was calculated by dividing the number of CFUs in the mock-treated sample with the number in the peptide-treated samples.

P. aeruginosa = assay: Growth rate of culture, optical density; format: cell-based, Pseudomonas aeruginosa; details: 30 nM peptide
Experimental: FIG. 21 is a graph showing of peptide B22 (mock), B22a and B22m1 (each at […]) can reduce bacterial growth of P. aeruginosa, wherein the bacteria were grown in a plate reader at 37° C. and shaken. Optical density was monitored every ten (10) minutes to track the growth rate.
This low concentration of the peptide should further decrease the possibility of peptide oligomerization, as oligomerization should be dependent on the concentration of the peptide. The growth of the bacterial culture was then monitored over time. […] The cell division time of E. coli and Enterobacter cloacae were also in the absence or presence of 100 nM of B22a. The presence of B22a increased the doubling time of both bacterial by more than 2-fold. […] Should B22a and B22m1 inhibit bacteria growth as well as kill bacteria through the formation of higher order structures in the membrane, the peptides may have multiple mechanisms to act against bacteria survival. Peptides that act by multiple mechanisms may result in lower bacterial resistance to the peptides.

Vibrio vulnificus = assay: Lethal sepsis model, surgical incision infection; details: no V. vulnificus
Experimental: The number of symptom-less mice in cages of 5 mice were recorded as a function of time. About 50 colony forming units of V. vulnificus were introduced into a surgical incision. The antimicrobial peptide B22 was introduced into the incision at 5 μM 1 h after the introduction of V. vulnificus to the surgical incision.
A lethal sepsis model from Vibrio vulnificus infection of CD-1 mice was selected. […] Cages of 5 mice were monitored every 2 h.

19 Gram-negative strains = assay: MIC panel, number of strains inhibited; format: cell-based; details: of 19 Gram-negative strains
Experimental: as §4

Toll-like receptor 3 = assay: Poly(I:C)-induced cytokine production in BEAS-2B cells, ELISA; format: cell-based, human; details: peptide 2 μM
Experimental: Lung epithelial BEAS-2B cells were induced with poly(I:C) at 0.1 μg/ml and the amount of IL-6 secreted into the media 20 h later was assessed by ELISA. Where present, the antimicrobial peptide was at a final concentration of 2 μM.
IL-6 production was quantified by ELISA using the OptEIA™ kit (BD Biosciences). A typical assay used 2×10^4 BEAS-2B cells/well grown for 24 h in flat-bottom 96-well plates. Poly(I:C) was added to a final concentration of 0.13 μg/ml.

Cultured human cells = assay: MTT cytotoxicity assay; format: cell-based
[3] = test system: human red blood cells (hRBCs); assay: Hemolytic activity; format: cell-based
Experimental: The amount of hemoglobin released was measured by the absorbance at 435 nm after a 60-minute incubation with the antimicrobial peptide. The percentage of hRBC lysis was normalized to the amount hemoglobin released by the suspension of the hRBCs in deionized water. The background amount of hRBC lysis was determined by adding phosphate buffered saline (PBS) at the same volume as 8 μM of the peptide to the hRBC for 1 h.
The hemolytic activities of peptides were determined using human red blood cells (hRBCs) (Innovative Research, Inc., cat. # IPLA-WB3-18103). The hRBCs were washed three times with PBS and then resuspended in PBS. The hRBCs solution was mixed with serial dilutions of the peptides in PBS buffer. The reaction mixtures were incubated for 45 min at 37° C. After centrifugation at 94×g for 10 min, the intact hRBCs were pelleted and the hemoglobin released from hRBCs was monitored by measuring the absorbance of the supernatant at 415 nm. The background level of absorbance was measured in sampled incubated with only PBS buffer. 100% hemolysis was determined in sampled incubated with water. The percentage of hemolysis was calculated according to the following equation. Percentage of hemolysis=[(Asample−Ablank)/Awater]*100%
Mammalian cells are thought to be less susceptible to cathelicidin peptides in part because the composition of their membrane will be less likely to interact with the peptides. To address this directly, human red blood cells (hRBCs) were tested for lysis after a 45-minute incubation with the peptides. The total lysis of hRBCs was determined by adding water to the cells. The amount of lysis during handling was determined by the addition of phosphate buffered saline at the same volume as that of the peptides.

V. angustum = assay: Vibrios killing activity; format: cell-based; details: increasing concentrations of SMAP-29C
Experimental: (§5) Vibrios bacteria such as V. angustum or V fischeri were cultured in LM at 30° C. The V. angustum culture was 200× diluted, V. fischeri culture was 40× diluted. […] The peptides were incubated with the bacteria for 1 hour at 30° C. before plated into the bacteria culture (100 μL peptides and 20 μL mock). The cultures were incubated overnight and Colony Forming Units (CFUs) were counted.

V. fischeri = assay: Vibrios killing activity; format: cell-based; details: increasing concentrations of SMAP-29C
Experimental: as §5

V. harveyi = assay: Vibrio growth with increasing peptide concentration; format: cell-based; details: increasing concentrations of SMAP-29C
Experimental: Bacteria within Vibrio genus are highly sensitive to the SMAP-29C peptide. Various strains of Vibrio were treated with increasing concentrations of SMAP-29C (See FIG. 7).

Experimental for Enterobacter cloacae: as §4
Experimental for Enterococcus faecalis: as §4
Experimental for Escherichia coli: as §4
Experimental for Klebsiella pneumoniae: as §4
Experimental for Serratia marcescens: as §4
Experimental for Staphylococcus aureus: as §4

## CC[C@H](C)[C@H](NC(=O)[C@@H](NC(=O)[C@@H]1CCCN1C(=O)[C@H](CO)NC(=O)[C@H](CC(C)C)NC(=O)[C@H](CCCCN)NC(=O)[C@H](CCCCN)NC(=O)[C@H](Cc1ccccc1)NC(=O)[C@H](CC(C)C)NC(=O)[C@H](CCCCN)NC(=O)[C@H](CCCCN)NC(=O)[C@H](CC(C)C)NC(=O)[C@H](CCCCN)NC(=O)[C@H](CCCCN)NC(=O)[C@H](CCCNC(=N)N)NC(=O)[C@H](Cc1ccccc1)NC(=O)COCCOCCN)C(C)C)C(=O)N1CCC[C@H]1C(=O)N[C@@H](CC(C)C)C(=O)N[C@@H](CC(C)C)C(=O)N[C@@H](CCCCN)C(=O)N[C@@H](CC(C)C)C(=O)NCC(N)=O [PB22N] (H-[AEEA]FRKKLKKLFKKLSPVIPLLKLG-NH2)
[1]
  Toxicity signs in mice injected with peptide: no obvious symptoms were observed; also recorded: no obvious effects on mice behavior or appearance
Escherichia coli
  Minimal inhibitory concentration: 1 µM
Klebsiella pneumoniae
  Minimal inhibitory concentration: 1 µM (≈ 2.74 µg/mL)
V. vulnificus
  Outcome in mouse septicemia model: survived and did not exhibit symptoms of infection
[2]
  MICs relative to B22a: approximately two-fold better
Pseudomonas aeruginosa
  Minimal inhibitory concentration: 1 µM (≈ 2.74 µg/mL)

## ARKKLKKLAKKLSPVIPLLKLG-NH2 [Peptide B22m2]
P. aeruginosa PAO1
  Reduction of viable colony formation by P. aeruginosa: more than 2 logs
  Viable colony formation, P. aeruginosa PAO1: 7.3 × 10^3
  Fold reduction, P. aeruginosa PAO1: 164
Escherichia coli
  MIC: 4 µM
E. coli ATCC 25922
  Viable colony formation, E. coli ATCC 25922: 8.7 × 10^4
  Fold reduction, E. coli ATCC 25922: 9
Pseudomonas aeruginosa
  MIC: 4 µM

## Ac-FRKKLKKLFKKLSPVIPLLKLG-NH2 [AB22a]
[1]
  Toxicity signs in mice injected with peptide: no obvious effects on mice behavior or appearance
[1]; listed as AB22N
  Toxicity signs in mice injected with peptide: no obvious symptoms were observed

## Colistin [reference compound]
E. coli Top10pHNSHP45; 2 μM, 5 minute incubation (FIG. 12A)
  Killing of E. coli Top10pHNSHP45: resistant
E. coli Top10pHNSHP45
  Reduction of Top10pHNSHP45 colony formation: little effect
Klebsiella pneumoniae; Table 8, clinical isolate 262 (NDM1+)
  MIC: > 8 µg/mL
Klebsiella pneumoniae; Table 8, clinical isolate 284
  MIC: 16 µg/mL
Klebsiella pneumoniae; Table 8, clinical isolate 330
  MIC: > 16 µg/mL
Klebsiella pneumoniae; Table 8, clinical isolate 361
  MIC: > 16 µg/mL
Klebsiella pneumoniae; Table 11, clinical isolate 265
  MIC: >8 µg/mL
Klebsiella pneumoniae; Table 11, clinical isolate 284
  MIC: 16 µg/mL
Klebsiella pneumoniae; Table 11, clinical isolate 330
  MIC: >16 µg/mL
Klebsiella pneumoniae; Table 11, clinical isolate 361
  MIC: >16 µg/mL

## FRKKLKKLAKKLSPVIPLLKLG-NH2 [Peptide B22m1]
P. aeruginosa PAO1
  Killing of P. aeruginosa compared with B22a: comparable killing
  Viable colony formation, P. aeruginosa PAO1: <20
  Fold reduction, P. aeruginosa PAO1: >6000
Escherichia coli
  MIC: 2 µM
E. coli ATCC 25922
  Killing of E. coli compared with B22a: comparable killing
  Viable colony formation, E. coli ATCC 25922: 4.7 × 10^5
  Fold reduction, E. coli ATCC 25922: 170
P. aeruginosa
  Growth rate of P. aeruginosa: perceptibly reduced
Pseudomonas aeruginosa
  MIC: 2 µM

## FRKKLKKLFKKLSPVIPLLKLG [Peptide B22]
Staphylococcus aureus
  MIC: >64 µM
  MICs for two strains of S. aureus: ≥ 64 µM
Vibrio vulnificus
  Symptoms of mice treated with B22 alone: no symptom throughout the experiment
Enterococcus faecalis
  MIC: >32 µM
Klebsiella pneumoniae
  MICs with the carbapenem-resistant K. pneumoniae: ≤ 4 µM
Serratia marcescens
  Minimal inhibitory concentration: >32 µM
Enterobacter cloacae
  MIC: 2 µM
  Minimal inhibitory concentration: 4 µM
Pseudomonas aeruginosa
  MIC: 2 µM

## FRKKLKKLFKKLSPVIPLLKLG-NH2 [Peptide B22a]
[1]
  Toxicity signs in mice injected with peptide: did not exhibit distress or signs of toxicity
Escherichia coli
  MIC: 2 µM
Klebsiella pneumoniae
  Minimal inhibitory concentration: 2 µM
Serratia marcescens
  Minimal inhibitory concentration: >32 µM
Enterobacter cloacae
  Minimal inhibitory concentration: 4 µM
Pseudomonas aeruginosa
  MIC: 2 µM
  Minimal inhibitory concentration: 2 µM

## GLRKKFRKTRKRIQKLGRKIGKTGRKVWKAWREYGQIPYPCRI [CAP-11, reference compound]
19 Gram-negative strains
  Number of strains inhibited at 16 μg/ml: 16/19
Escherichia coli
  Minimal inhibitory concentration: >32 µg/mL

## GRFKRFRKKLKKLFKKLSPVIPLL [BMAP-24]
Staphylococcus aureus
  MIC: >64 µM
  MICs for two strains of S. aureus: ≥ 64 µM
Enterococcus faecalis
  MIC: 4 µM
E. coli Top10pHNSHP45; 2 μM (FIG. 13)
  Viable colonies of Top10pHNSHP45 relative to BMAP27B: reduced the number of viable colonies relative to BMAP27B
Klebsiella pneumoniae
  MICs with the carbapenem-resistant K. pneumoniae: ≤ 4 µM
Toll-like receptor 3
  IL-6 production: do not enhance
  IL-8 production: do not enhance
Enterobacter cloacae
  MIC: 2 µM

## GRFKRLRKKLKKLFKKLSPVIPLLHLG [BMAP-27B]
Staphylococcus aureus
  MIC: >64 µM
Cultured human cells
  Cytotoxicity, MTT assay: no increased cytotoxicity compared to the controls
[3]
  RBC lysis: decreased RBC lysis compared to the control H2O
Enterobacter cloacae
  MIC: 4 µM
  Minimal inhibitory concentration: 4 µM
Pseudomonas aeruginosa
  MIC: 4 µM
  Minimal inhibitory concentration: 4 µM

## LLGDFFRKSKEKIGKEFKRIVQRIKDFLR [LL-29]
19 Gram-negative strains
  Number of strains inhibited at 16 μg/ml: 4/19

## RGLRRLGRKIAHGVKKCGPTVLRIIRIAGC [SMAP-29C]
E. coli Top10pHNSHP45
  Reduction of Top10pHNSHP45 colony formation: several logs
V. angustum
  Growth of V. angustum: growth reduction correlation to the concentration of SMAP-29C
V. fischeri
  Growth of V. fischeri: growth reduction correlation to the concentration of SMAP-29C
V. harveyi
  Growth of V. harveyi: growth reduction correlation to the concentration of SMAP-29C

## RLGNFFRKVKEKIGGGLKKVGQKIKDFLGNLVPRTAS [RL-37]
19 Gram-negative strains
  Number of strains inhibited at 16 μg/ml: 7/19
